Laboratory results published in patent publication US20110145975A1, “P0WDER-FREE GLOVE WITH STABLE AND FAST ACTING MICROBIAL COATING” (ANSELL LIMITED, priority 2009, published 2011).

Assay type: physicochemical
Text: Several cationic antimicrobial agents are available for incorporation into the antimicrobial coating. The resistances of these cationic antimicrobial agents to degradation vary due to differences in their chemical structure, molecular weight, and species of anions and anionic surfactants that tend to degrade the long lifetime of the antimicrobial coating. […] Mixtures of antimicrobial agents can be used, for example to expand the range of bacteria against which the coating is effective.

Substance: poly(hexamethylene biguanide) chloride
- resistance to degradation: more resistant to degradation than CHG
